Article PMC10808981, “Synthesis and structure–activity relationships of aryl fluorosulfate-based inhibitors as novel antitubercular agents” (Bioorganic & Medicinal Chemistry Letters, 2024)
Like-named read-outs stand apart in the source and are kept apart here.

Experiments:
[1] = tested on: Mtb H37Ra; experiment: microbe, parasite or virus in culture; type: cell-based; conditions: Mycobacterium tuberculosis, 168 h, read-out: H37Ra IC50
[2] = in vitro; conditions: human
[3] = tested on: Mtb CDC1551; experiment: Anti-TB activity against Mtb CDC1551 (IC90), Alamar Blue; type: cell-based; conditions: Mycobacterium tuberculosis
[4] = HEK293T cytotoxicity assay (Cell Titer-Glo); type: cell-based; conditions: human, HEK293T cells; HEK293T, 3 days
Protocol: (§1) HEK293T (ATCC) were grown in DMEM (Gibco Cat # 11965-092) supplemented with 10% heat-inactivated FBS, Pen Strep (Gibco) 1X in a 5% CO2 humidified atmosphere at 37◦C. Cells were washed once with DPBS 1X (Gibco), incubated for less than 5 minutes at room temperature in TrypLE solution (Gibco), washed once in propagation medium to remove trypsin, and counted with Trypan Blue. 5 µL of cell suspension ([…]) was dispensed into 1536-well plates containing serial 3-fold drug dilution ranging from 40 µM to 2 nM and incubated for 3 days in a 5% CO2 humidified atmosphere at 37 ◦C. Cell Titer-Glo® Luminescent Cell Viability Assay (Promega) reagent was diluted 1:1 with water and then 2 µL were added to plates. Luminescence was measured in a PHERAStar plate reader (BMG Labtech) and data normalized to negative control (DMSO) minus inhibitor (Puromycin 10 µM). Dose-response curves were fit using the Smart Fit function in Genedata Screener Analyzer (v16.0.8).

[5] = tested on: Mtb H37Rv; experiment: MIC determination in Mtb H37Rv, Microdilution Alamar Blue Assay (MABA); type: cell-based, Mycobacterium tuberculosis
[6] = tested on: HEK293T cells; experiment: HEK293T cytotoxicity assay (Cell Titer-Glo); type: cell-based; conditions: for CC50: HEK293T, 3 days
Protocol: as §1

[7] = in vitro; conditions: mouse, po, 20 mg/kg
[8] = tested on: HepG2 cells; conditions: for CC50: read-out: HepG2 CC50, HepG2, 3 days
[9] = in vitro; conditions: mouse, plasma
[10] = in vivo; conditions: mouse
[11] = mouse
[12] = Mycobacterium tuberculosis, H37RV, 168 h, Mtb H37Rv, MABA, 7 days

O=S(=O)(F)Oc1ccc(OCc2ccc(-n3cncn3)cc2)cc1 [Compound 3a, 4-((4-(1H-1,2,4-triazol-1-yl)benzyl)oxy)phenyl sulfurofluoridate]
IC50 [1]: 1.5 µM | CC50 at 72 h [2]: 19.3 µM | IC90 [3]: 4.71 µM | CC50 at 72 h [4]: 11.6 µM | MIC [5, 12]: 2.84 µM

CS(=O)(=O)Nc1ncn(-c2cc(F)c(COc3ccc(OS(=O)(=O)F)cc3)c(F)c2)n1 [Compound 21b, 4-((2,6-difluoro-4-(3-(methylsulfonamido)-1H-1,2,4-triazol-1-yl)benzyl)oxy)phenyl sulfurofluoridate]
CC50 [2]: > 40 µM | cytotoxicity against HEK293T (in words) [6]: no cytotoxicity | CC50 at 3 days [4]: > 40 µM | fraction unbound [7]: 0.016 | cytotoxicity against HepG2 (in words) [8]: no cytotoxicity | fraction unbound [9]: 0.008 | Cmax ([10]; iv, 3 mg/kg): 3310 ng/mL | bioavailability ([10]; po, 20 mg/kg): 99.4% | H37Rv MIC ([5]; Mtb H37Rv, MABA, 7 days): 0.06 ± 0.019 µM | MIC ([5]; Mycobacterium tuberculosis, H37RV): 0.028 µg/mL | MIC [5, 12]: 0.06 µM | coverage of plasma and lung levels above the H37Rv MIC ([11]; 20 mg/kg PO, total levels): ~24 h | unbound levels of plasma and lung coverage over MIC ([11]; 20 mg/kg PO, unbound levels): ~8 h | AUC0-24 ([11]; IV 3 mg/kg): 7,085 hr*ng/mL | Cl ([11]; IV 3 mg/kg): 7.05 mL/min/kg | T1/2 ([11]; IV 3 mg/kg): 3.93 h | Vd ([11]; IV 3 mg/kg): 2.38 L/kg | AUC0-24 ([11]; PO 20 mg/kg): 47,615 hr*ng/mL | T1/2 ([11]; PO 20 mg/kg): 2.57 h | Tmax ([11]; PO 20 mg/kg): 1.00 h | Clung at 8 h ([11]; PO 20 mg/kg, lung, 8 h): 1,596 ng/mL | Clung at 24 h ([11]; PO 20 mg/kg, lung, 24 h): 14.1 ng/mL | Cplasma at 8 h ([11]; PO 20 mg/kg, plasma, 8 h): 2,120 ng/mL | Cplasma at 24 h ([11]; PO 20 mg/kg, plasma, 24 h): 22.6 ng/mL | Cmax ([11]; in vivo, po, 20 mg/kg): 9,290 ng/mL

4-((2,6-difluoro-4-(3-isopropyl-1H-1,2,4-triazol-1-yl)benzyl)oxy)phenyl sulfurofluoridate [Compound 20 h]
CC50 [6]: > 40 µM | CC50 [8]: > 40 µM | MIC ([5]; Mtb H37Rv, MABA, 7 days): 0.31 µM

4-((2,6-difluoro-4-(1H-1,2,3-triazol-1-yl)benzyl)oxy)phenyl sulfurofluoridate [Compound 3 m]
CC50 [6]: > 40 µM | CC50 [8]: > 40 µM | MIC ([5]; Mtb H37Rv, MABA, 7 days): 0.22 µM

O=S(=O)(F)Oc1ccc(OCc2ccc(-n3cncn3)cc2F)cc1 [Compound 3d, 4-((2-fluoro-4-(1H-1,2,4-triazol-1-yl)benzyl)oxy)phenyl sulfurofluoridate]
CC50 at 72 h [2]: 12.5 µM | IC90 [3]: 1.3 µM | CC50 at 72 h [4]: 22.7 µM | MIC [5, 12]: 0.6 µM

O=S(=O)(F)Oc1ccc(OCc2c(F)cc(-n3cncn3)cc2F)cc1 [Compound 3i, 4-((2,6-difluoro-4-(1H-1,2,4-triazol-1-yl)benzyl)oxy)phenyl sulfurofluoridate]
CC50 at 72 h [2]: 5.8 µM | CC50 at 3 days [4]: > 40 µM | selectivity index (SI) ([8]; HepG2 cytotoxicity vs H37Rv MIC): 9.6 | MIC [5, 12]: 0.6 µM

COc1cc(OCc2ccc(-n3cncn3)cc2)ccc1OS(=O)(=O)F [Compound 3b, 4-((4-(1H-1,2,4-triazol-1-yl)benzyl)oxy)-2-methoxyphenyl sulfurofluoridate]
CC50 at 72 h [2]: 13.3 µM | IC90 [3]: > 30 µM | CC50 at 3 days [4]: > 40 µM | anti-TB activity against Mtb (in words) [5]: not active | MIC [5, 12]: 25 µM

O=S(=O)(F)Oc1ccc(OCc2ccc(-n3cncn3)cc2)cc1Cl [Compound 3c, 4-((4-(1H-1,2,4-triazol-1-yl)benzyl)oxy)-2-chlorophenyl sulfurofluoridate]
CC50 at 72 h [2]: 5.8 µM | IC90 [3]: 4.64 µM | cytotoxicity against HEK293T (in words) [6]: exhibited cytotoxicity | CC50 at 72 h [4]: 3.7 µM | cytotoxicity against HepG2 (in words) [8]: exhibited cytotoxicity

CC(C)S(=O)(=O)Nc1ncn(-c2cc(F)c(COc3ccc(OS(=O)(=O)F)cc3)c(F)c2)n1 [Compound 21e, 4-((2,6-difluoro-4-(3-((1-methylethyl)sulfonamido)-1H-1,2,4-triazol-1-yl)benzyl)oxy)phenyl sulfurofluoridate]
CC50 [2]: > 40 µM | CC50 at 3 days [4]: > 40 µM | MIC [5, 12]: 0.31 µM

CC(=O)Nc1ncn(-c2cc(F)c(COc3ccc(OS(=O)(=O)F)cc3)c(F)c2)n1 [Compound 21a, 4-((4-(3-acetamido-1H-1,2,4-triazol-1-yl)-2,6-difluorobenzyl)oxy)phenyl sulfurofluoridate]
CC50 [2]: > 40 µM | CC50 at 3 days [4]: > 40 µM | MIC [5, 12]: 0.15 µM

O=S(=O)(F)Oc1ccc(OCc2c(F)cc(-c3ncc[nH]3)cc2F)cc1 [Compound 19d, 4-((2,6-difluoro-4-(1H-imidazol-2-yl)benzyl)oxy)phenyl sulfurofluoridate]
CC50 at 72 h [2]: 30.1 µM | CC50 at 3 days [4]: > 40 µM | MIC [5, 12]: 0.3 µM

O=S(=O)(F)Oc1ccc(OCc2cc(F)c(-n3cncn3)c(F)c2)cc1 [Compound 3 g, 4-((3,5-difluoro-4-(1H-1,2,4-triazol-1-yl)benzyl)oxy)phenyl sulfurofluoridate]
CC50 [2]: > 40 µM | CC50 at 72 h [4]: 34.8 µM | MIC [5, 12]: 10 µM

CC(=O)Nc1ccc(COc2ccc(OS(=O)(=O)F)cc2)cc1 [Compound 2]
IC50 [1]: 1.3 µM

CC(C)(C)c1ncn(-c2cc(F)c(COc3ccc(OS(=O)(=O)F)cc3)c(F)c2)n1 [Compound 20d, 4-((4-(3-(tert-butyl)-1H-1,2,4-triazol-1-yl)-2,6-difluorobenzyl)oxy)phenyl sulfurofluoridate]
CC50 at 72 h [2]: 6.9 µM | CC50 at 72 h [4]: 13.7 µM | MIC [5, 12]: 1.2 µM

CCc1ncn(-c2cc(F)c(COc3ccc(OS(=O)(=O)F)cc3)c(F)c2)n1 [Compound 20b, 4-((4-(3-ethyl-1H-1,2,4-triazol-1-yl)-2,6-difluorobenzyl)oxy)phenyl sulfurofluoridate]
CC50 at 72 h [2]: 5.8 µM | CC50 at 3 days [4]: > 40 µM | MIC [5, 12]: 0.6 µM

O=S(=O)(F)Oc1ccc(OCc2c(F)cc(-c3nnn[nH]3)cc2F)cc1 [Compound 19 h, 4-((2,6-difluoro-4-(1H-tetrazol-5-yl)benzyl)oxy)phenyl sulfurofluoridate]
CC50 [2]: > 40 µM | CC50 at 3 days [4]: > 40 µM | MIC [5, 12]: 5 µM

O=S(=O)(F)Oc1ccc(OCc2c(F)cc(-n3ccnc3)cc2F)cc1 [Compound 19f, 4-((2,6-difluoro-4-(1H-imidazol-1-yl)benzyl)oxy)phenyl sulfurofluoridate]
CC50 [2]: < 10 µM | CC50 at 72 h [2]: 8.63 µM | CC50 at 72 h [4]: 9.65 µM | CC50 at 3 days [4]: < 10 µM | MIC [5, 12]: 0.37 µM
